# Laboratory results from patent EP1710301A1, “L-gulonolactone dehydrogenase of Mycobacterium tuberculosis” (priority 2005, dated 2006).
# Read-outs that look alike come from different tables or passages of the source.
# Legend:
# [1] = biological target: recombinant GST-tagged L-gulono-1,4-lactone dehydrogenase of Mycobacterium tuberculosis (Mycobacterium tuberculosis, UniProt P9WIT3); settings: for Enzyme specific activity: substrate 50 mM
# [2] = biological target: plant L-galactono-1,4-lactone dehydrogenase (Brassica oleracea, UniProt O47881); settings: read-out: Km for the L-galactono-1,4-lactone substrate; value reported by Östergaard et al., 1997; cited from earlier work
# Chain of plant L-galactono-1,4-lactone dehydrogenase (O47881 92-600): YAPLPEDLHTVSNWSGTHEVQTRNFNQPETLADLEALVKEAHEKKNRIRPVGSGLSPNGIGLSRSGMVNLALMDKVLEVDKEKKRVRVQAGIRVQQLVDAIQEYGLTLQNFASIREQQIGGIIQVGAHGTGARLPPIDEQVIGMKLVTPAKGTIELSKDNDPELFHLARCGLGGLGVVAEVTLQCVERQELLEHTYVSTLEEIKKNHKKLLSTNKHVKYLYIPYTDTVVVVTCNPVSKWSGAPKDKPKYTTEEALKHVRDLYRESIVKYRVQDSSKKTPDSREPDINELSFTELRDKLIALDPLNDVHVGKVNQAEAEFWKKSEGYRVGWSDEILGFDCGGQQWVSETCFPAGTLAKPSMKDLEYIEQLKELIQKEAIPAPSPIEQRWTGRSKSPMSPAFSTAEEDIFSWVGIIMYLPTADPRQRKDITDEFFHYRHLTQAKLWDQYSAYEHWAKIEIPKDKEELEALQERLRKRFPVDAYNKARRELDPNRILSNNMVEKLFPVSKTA
# [3] = system: O=C1O[C@H]([C@@H](O)CO)[C@H](O)[C@@H]1O; assay: purified protein, by the assay type
# Chain of recombinant GST-tagged L-gulono-1,4-lactone dehydrogenase of Mycobacterium tuberculosis (P9WIT3 whole entry): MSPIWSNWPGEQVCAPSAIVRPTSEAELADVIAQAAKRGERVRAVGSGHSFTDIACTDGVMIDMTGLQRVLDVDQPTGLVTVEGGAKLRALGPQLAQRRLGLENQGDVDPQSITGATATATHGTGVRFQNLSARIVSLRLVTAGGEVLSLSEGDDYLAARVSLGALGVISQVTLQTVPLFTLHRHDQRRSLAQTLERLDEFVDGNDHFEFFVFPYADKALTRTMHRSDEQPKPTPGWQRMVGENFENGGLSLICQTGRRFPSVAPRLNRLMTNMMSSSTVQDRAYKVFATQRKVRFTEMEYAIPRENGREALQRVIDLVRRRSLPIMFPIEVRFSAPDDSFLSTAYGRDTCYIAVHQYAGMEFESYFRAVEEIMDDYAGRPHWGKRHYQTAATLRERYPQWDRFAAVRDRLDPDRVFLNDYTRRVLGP
compound,measurement,setting,value
[Ca+2].[Cl-].[Cl-] [CaCl2],Relative activity,[1]; effector 1 mM,91 % of control
[Cl][Cu][Cl] [CuCl2],Relative activity,[1]; effector 1 mM,0 % of control
same,effect on the enzyme activity (in words),"[1]; effectors, EDTA 1 mM",Inhibition
O=C[C@@H](O)[C@H](O)[C@H](O)CO [D-arabinose],Enzyme specific activity,[1],0 mU/mg ofprotein
O=C[C@H](O)[C@@H](O)[C@H](O)[C@H](O)C(=O)O [D-glucuronic acid],Enzyme specific activity,[1],0 mU/mg ofprotein
"O=C[C@H](O)[C@H]1OC(=O)[C@@H](O)[C@H]1O [D-glucurono-3,6-lactone]",Enzyme specific activity,[1],0 mU/mg ofprotein
O=C[C@H](O)[C@@H](O)[C@H](O)CO [D-xylose],Enzyme specific activity,[1],0 mU/mg ofprotein
O=C(O)CN(CCN(CC(=O)O)CC(=O)O)CC(=O)O [EDTA],Relative activity,[1],0 % of control
same,effect on the enzyme activity (in words),[1],complete inhibition
Cc1cc2nc3c(=O)[nH]c(=O)nc-3n(C[C@H](O)[C@H](O)[C@H](O)COP(=O)(O)OP(=O)(O)OC[C@H]3O[C@@H](n4cnc5c(N)ncnc54)[C@H](O)[C@@H]3O)c2cc1C [FAD],Relative activity,[1]; effector 100 µM,94 % of control
same,effect on the enzyme activity (in words),"[1]; effectors, EDTA 1 mM",not affected
"O=C1O[C@H]([C@@H](O)CO)[C@@H](O)[C@@H]1O [L-galactono-1,4-lactone]",Enzyme specific activity,[1],0 mU/mg ofprotein
same,activity towards substrate (in words),[1]; substrate specificity,no activity
same,Km,[2],3.3 mM
"O=C1O[C@H]([C@@H](O)CO)[C@H](O)[C@@H]1O [L-gulono-1,4-lactone]",Enzyme specific activity,[1],66.7 mU/mg ofprotein
[Cl-].[Cl-].[Mg+2] [MgCl2],Relative activity,[1]; effector 1 mM,98 % of control
[Cl][Mn][Cl] [MnCl2],Relative activity,[1]; effector 1 mM,79 % of control
CCN1C(=O)C=CC1=O [N-ethylmaleimide],Relative activity,[1]; effector 1 mM,0 % of control
same,effect on the enzyme activity (in words),"[1]; effectors, EDTA 1 mM",Inhibition
[Cl-].[Cl-].[Zn+2] [ZnCl2],Relative activity,[1]; effector 1 mM,0 % of control
same,effect on the enzyme activity (in words),"[1]; effectors, EDTA 1 mM",Inhibition
"recombinant GST-tagged L-gulono-1,4-lactone dehydrogenase of Mycobacterium tuberculosis (Mycobacterium tuberculosis H37Rv)",Km,[3],5 mM mM
same,Vmax,[3],2.44µmol·h^-1mg^-1 µmol·h^-1mg^-1
same,kcat,[3],0.033 s^-1 s^-1
same,kcat/Km,[3],0.0065 s^-1·mM^-1 s^-1·mM^-1
